From publication PMC6749314, “Development of the Tumor-Specific Antigen-Derived Synthetic Peptides as Potential Candidates for Targeting Breast and Other Possible Human Carcinomas” (Molecules, 2019)
Like-named read-outs stand apart in the source and are kept apart here.

How the values were obtained:
[1] = biological target: human epidermal growth factor receptor 2 (HER2) (human (endogenous in SKBR3, MCF7, T47D)) (UniProt P04626); test: radioligand binding; saturation binding of 99mTc-labeled peptide (0.1-30 nM) to ~300,000 MCF7 cells in low-serum media, 60 min, room temperature; non-specific binding with ~200-fold molar excess of unlabeled peptide; nonlinear regression
[2] = biological target: human epidermal growth factor receptor 2 (HER2) (human (endogenous in SKBR3, MCF7, T47D)) (UniProt P04626); test: radioligand binding; saturation binding of 99mTc-labeled peptide (0.1-30 nM) to ~300,000 T47D cells in low-serum media, 60 min, room temperature; non-specific binding with ~200-fold molar excess of unlabeled peptide; nonlinear regression
[3] = system: T47D tumor xenografts; conditions: for tumor uptake: nude mice, mean ± SD
Method: (§3) In vivo biodistribution studies were performed on healthy Balb/c mice (n = 3–5 in each group, body mass 19–22 g) at 1 and 4 h after i.v. injection of the HPLC-purified radiopeptide (100 μL, 10–15 μCi, total peptide dose ~10 ng) via the lateral tail vein as described previously [54]. Mice were euthanized by cervical dislocation at specified times, the selected tissues/organs were removed, and radioactivity was measured in a γ-counter. Uptake of radioactivity in the tissues and organs was expressed as the percent injected dose per gram (% ID/g) of tissue/organ, which was calculated by comparison with standard solutions representing 10% of the injected dose per animal. For the clearance studies, radioactivity in the urine with bladder is expressed as the percent of the injected dose per organ (% ID/organ).
(§4) Approximately 7 million HER2-positive SKBR3 cells and MUC1-positive MCF7 and T47D breast tumor xenografts were injected subcutaneously into a group of nude female mice and allowed to grow for 4 to 6 weeks. After sufficient growth of tumors, the animals were sacrificed and the uptake of ^99mTc-HER2 and ^99mTc-MUC1 by the tumors and other major organs was determined by biodistribution experiments, as described above.

[4] = format: physicochemical
Excerpt: Table 1 Characterization of ^99mTc-HER2 and ^99mTc-MUC1 peptides. | column: Log P (Octanol/Saline)

[5] = parameters: species or system Balb/c mice; conditions: mouse, in vivo, iv
Method: Approval for the animal protocol used in this study was obtained from the Institutional Animal Care and Use Committee. Animal studies were conducted according to the international regulations governing the safe and proper use of laboratory animals [48]. In vivo biodistribution studies were performed on healthy Balb/c mice (n = 3–5 in each group, body mass 19–22 g) at 1 and 4 h after i.v. injection of the HPLC-purified radiopeptide (100 μL, 10–15 μCi, total peptide dose ~10 ng) via the lateral tail vein as described previously [54]. Mice were euthanized by cervical dislocation at specified times, the selected tissues/organs were removed, and radioactivity was measured in a γ-counter. Uptake of radioactivity in the tissues and organs was expressed as the percent injected dose per gram (% ID/g) of tissue/organ, which was calculated by comparison with standard solutions representing 10% of the injected dose per animal. For the clearance studies, radioactivity in the urine with bladder is expressed as the percent of the injected dose per organ (% ID/organ).

[6] = system: MCF7 cells; test: Cellular internalization (acid wash); format: cell-based, human; conditions: % of cell-surface bound radiopeptide internalized, acidic buffer pH 5.0, 10 min, 37 °C
Method: (§1) In order to differentiate between cell-surface bound and cellular internalized radioactivity, cell pellet was treated with 0.3 mL of acidic buffer (0.02 M sodium acetate in saline, pH 5.0) for 10 min at 37 °C at the end of the binding experiment, followed by centrifugation and washing with cold acidic buffer. The amount of cell surface-bound (acid-wash) and internalized (acid-resistant) radioactivity was determined by measuring the radioactivity of the supernatant and the cell-pellet, respectively, in a γ-counter.

[7] = system: T47D cells; test: Cellular internalization (acid wash); format: cell-based, human; conditions: % of cell-surface bound radiopeptide internalized, acidic buffer pH 5.0, 10 min, 37 °C
Method: as §1

[8] = Radio-HPLC retention time on C18 reversed-phase column; format: physicochemical; conditions: Econosphere C18 (10 μm, 250 × 4.6 mm), 0.1% TFA water/CH3CN, 5 to 95% B over 30 min, 1.1 mL/min, longer retention ascribed to higher lipophilicity
Method: The HPLC analysis and purification of the peptides were performed on a Shimadzu HPLC system using Econosphere C18 reversed-phase column (10 μm, 250 × 4.6 mm, Alltech, Deerfield, IL, USA). For HPLC experiments, a gradient solvent system of 0.1% (v/v) TFA in water (solvent A) and 0.1% (v/v) TFA in CH3CN (solvent B) at a flow rate of 1.1 mL/min was used. The HPLC gradient began with a solvent composition of 95% A and 5% B from 0 to 2.5 min followed by a linear gradient of 95% A and 5% B to 5% A and 95% B over 30 min. The gradient remained at this position for 3 min before switching back to 95% A and 5% B for another 7 min. The main peak of each radiolabeled peptide was isolated, and acetonitrile then evaporated under a stream of nitrogen gas. The HPLC system (Shimadzu Corporation, Kyoto, Japan) was equipped with a UV-VIS detector (Shimadzu Corporation, Kyoto, Japan) set at 220 nm, a Flow-count γ-radioactivity detection system (Bioscan Inc., Washington, DC, USA) and the Lauralite HPLC chromatogram analysis program (LabLogic Systems Ltd., Sheffield, UK). Radiochemical purity was estimated by evaluating radioactivity peaks eluted for each ^99mTc-labeled peptide from the HPLC column and calculating the area under the peak (ROI). The HPLC-purified compounds were reconstituted in sterile saline and used for in vitro and in vivo experiments.

[9] = system: MCF7 tumor xenografts; conditions: for tumor uptake: nude mice, mean ± SD
Method: as §3, §4
(§5) In general, for preclinical gamma camera imaging, each tumor-bearing mouse model was intravenously injected with ~200 μCi of ^99mTc-HER2 or ^99mTc-MUC1 peptide through the tail vein. Mouse static planar images were then acquired at 1 h after the radiotracer injection by a portable hand-held γ-camera equipped with CsI(Tl) scintillation detector, with intrinsic spatial resolution of 2.45 mm (IP guardian 2, Li-Tech, Italy).

[10] = system: T47D breast cancer cell line; test: In vitro tumor cell binding (saturation, Kd); parameters: species or system human; conditions: for Kd: T47D, ~300,000 cells, 0.1-30 nM radiopeptide, 60 min, room temperature, duplicate, non-specific with ~200-fold excess unlabeled peptide, mean ± SD
Method: (§2) The cell-binding studies of ^99mTc-labeled HER2 and MUC1 peptides into respective HER2 and MUC1-positive human breast cancer cell lines (American Type Culture Collection, Rockville, MD, USA) was performed according to the method described previously. In brief, ~300,000 cells (in 0.3 mL low-serum media) were incubated with various amounts of radiopeptides, ranging between 0.1 and 30 nM of peptides (prepared from the serial dilutions of HPLC-purified radiopeptides), in duplicate for 60 min at room temperature. Incubation was terminated by dilution with cold saline (0.3 mL) and the cells were pelleted by centrifugation. The cell-pellets was then rapidly washed with cold saline to remove any unbound peptide and centrifuged to collect supernatants. Radioactivity in the cell-pellet and the washings was measured in a γ-counter. Non-specific binding was determined in the presence of ~200-fold molar excess of unlabeled peptide. Specific binding was calculated by subtracting the non-specifically bound radioactivity from that of the total binding. The dissociation constant (Kd) was calculated using a plot of specific cell-bound radioactivity versus increasing concentrations of the radiopeptide using a nonlinear regression analysis program (GraphPad Prism Software Inc., San Diego, CA, USA).

[11] = system: MCF7 breast cancer cell line; test: In vitro tumor cell binding (saturation, Kd); parameters: species or system human; conditions: ~300,000 cells, 0.1-30 nM radiopeptide, 60 min, room temperature, duplicate, non-specific with ~200-fold excess unlabeled peptide, mean ± SD
Method: as §2

[12] = system: MDA-MB-231 breast xenografts; test: In vivo tumor targeting, MDA-MB-231 xenografts (negative control); conditions: nude mice, HER2-/MUC1-negative MDA-MB-231 xenografts, mean ± SD
[13] = system: HER2-positive SKBR3 tumor xenografts; conditions: for tumor uptake: nude mice, n = 3-5, mean ± SD
Method: as §3, §4, §5

[14] = system: SKBR3 cells; test: Cellular internalization (acid wash); format: cell-based, human; conditions: % of cell-surface bound radiopeptide internalized, acidic buffer pH 5.0, 10 min, 37 °C
Method: as §1

[15] = system: HER2-positive SKBR3 breast cancer cell line; test: In vitro tumor cell binding (saturation, Kd); parameters: species or system human
Method: as §2

[16] = biological target: p185HER2/neu; conditions: binding to p185HER2/neu; ref [22],[23],[24]; cited from earlier work
Excerpt: AHNP peptide was able to disable HER2 tyrosine kinases in vitro and in vivo similar to the monoclonal antibody from which it was derived. […] It has been shown that AHNP diminished the early tyrosine phosphorylation of p185HER2/neu, and inhibited proliferation of p185HER2/neu overexpressing tumor cells in ...

[17] = system: breast carcinoma xenografts; conditions: radiolabeled KCCYSL peptides, ref [8],[19]; cited from earlier work
Excerpt: Several small peptide molecules have been developed in recent years for targeting HER2-positive breast cancer. For example, a 6-amino-acid containing peptide, KCCYSL, was discovered by the phage display method after in vitro selection with a recombinant ERBB2 extracellular domain. The KCCYSL peptide, derivatized with different metal chelators (i.e., DOTA, NOTA, CB-TE2A, and DAP) and radiolabeled with radionuclide metal ions (e.g., ^111In, ^64Cu, ^99mTc), has been successfully used for in vivo imaging of HER2 overexpressing tumor models. The tumor cell binding affinity (Kd) of KCCYSL for ...

[18] = MCF7 xenografts, 1 h p.i., unblocked

## 99mTc-HER2 hybrid peptide (Acetyl-Gly-Gly-Cys-ALA-Lys-Ile-Phe-Gly-Ser-Leu-Ala-Phe-Leu-Lys-Cys-Cys-Tyr-Ser-Leu-CONH2)
[1]
  Kd: 158 nM
[2]
  Kd: 169 nM

## Ac-GGCEPDTRP-NH2 [^99mTc-MUC1]
[3]; T47D xenografts, 1 h p.i.
  tumor-to-blood ratio: 3.27
  tumor-to-muscle ratio: 12.62
  tumor uptake: 2.65 ± 0.54 % ID/g
[3]; T47D xenografts, 4 h p.i.
  tumor-to-muscle ratio: 11.40
  tumor uptake: 1.14 ± 0.21 % ID/g
[3]; mouse, in vivo
  accumulation in the kidneys: 2.26 ± 0.36 % ID/g
  cleared from the kidneys: 48%
  hepatobiliary excretion: below 13 % ID
  initial accumulation in the kidneys: 4.35 ± 1.0 % ID/g
  radioactivity remaining in the blood circulation: 0.30 ± 0.07 % ID/g
[4]
  Log P (Octanol/Saline): −2.22 ± 0.12
[5]
  radioactivity found in the urine: up to 47.0 ± 6.28 % ID
[6]
  % Internalization: 18.92 ± 2.16%
[7]
  % Internalization: 21.11 ± 2.95%
[8]
  HPLC Retention Time: 14.10 min
[9]; MCF7 xenografts, 1 h p.i.
  tumor-to-blood ratio: 2.39
  tumor-to-muscle ratio: 18.47
[9]; MCF7 xenografts, 4 h p.i.
  tumor-to-blood ratio: 1.09
  tumor-to-muscle ratio: 11.20
  tumor uptake: 1.12 ± 0.30 % ID/g
[9]; MCF7 xenografts, over 4 h
  washout from the tumors: 60%
[9]; MUC1-positive (MCF7) xenografts, 100 μg of unlabeled MUC1 peptide 30 min before injection of radiopeptide
  tumor uptake, blocked: 1.05 ± 0.21 % ID/g
[9]; MUC1-positive (MCF7) xenografts, 100 μg unlabeled MUC1 peptide 30 min before, P = 0.02
  reduction of tumor uptake by blocking dose: approximately 62%
[9]; mouse, in vivo
  hepatobiliary excretion (liver + intestines): below 13 % ID
  radioactivity excreted in the urine: up to 49 % ID
[9]; [18]
  tumor uptake: 2.77 ± 0.63 % ID/g
[9]; nude mouse, MCF7 xenograft, 1 h p.i., ~200 μCi i.v.
  gamma camera imaging of tumor: detectable in the image
[10]
  Kd: 3.48 ± 0.84 nM
[10]; ratio of Kd values
  binding affinity higher to T47D cell line compared to MCF7 cell line: 3 fold
[11]
  Kd: 10.3 ± 1.55 nM
[12]; 1 h p.i.
  tumor uptake: 0.64 ± 0.13 % ID/g
[12]; 4 h p.i.
  tumor uptake: 0.41 ± 0.10 % ID/g

## Acetyl-Gly^19-Gly^18-Cys^17-ALA^16-Lys^15-Ile^14-Phe^13-Gly^12-Ser^11-Leu^10-Ala^9-Phe^8-Leu^7-Lys^6-Cys^5-Cys^4-Tyr^3-Ser^2-Leu^1-CONH2 [^99mTc-HER2]
[3]; T47D xenografts, 1 h p.i.
  tumor uptake: 1.25 ± 0.32 % ID/g
[3]; T47D xenografts, 4 h p.i.
  tumor uptake: 0.80 ± 0.17 % ID/g
[13]; SKBR3 xenografts, 1 h p.i.
  tumor-to-blood ratio: 1.54
  tumor-to-muscle ratio: 9.37
[13]; SKBR3 xenografts, 4 h p.i.
  tumor-to-blood ratio: 1.34
  tumor-to-muscle ratio: 8.71
  tumor uptake: 1.22 ± 0.25 % ID/g
[13]; SKBR3 xenografts, over 4 h
  washout from the tumors: 57%
[13]; SKBR3 xenografts, 100 μg of HER2 peptide 30 min before injection of radiopeptide
  tumor uptake, blocked: 1.07 ± 0.24 % ID/g
[13]; SKBR3 xenografts, 100 μg of HER2 peptide 30 min before, P = 0.02
  reduction of tumor uptake by blocking dose: approximately 62%
[13]; mouse, in vivo
  hepatobiliary excretion (liver + intestines): below 15 % ID
  kidney accumulation and retention: up to 10 % ID/g
  radioactivity excreted in the urine: up to 41 % ID
[13]; SKBR3 xenografts, 1 h p.i., unblocked
  tumor uptake: 2.81 ± 0.79 % ID/g
[13]; nude mouse, SKBR3 xenografts, 1 h p.i., ~200 μCi i.v.
  gamma camera imaging of tumor: detectable in the image
[4]
  Log P (Octanol/Saline): 1.38 ± 0.06
[5]
  radioactivity found in the urine: up to 40.0 ± 5.10 % ID
[14]
  % Internalization: 19.90 ± 5.35%
[6]
  % Internalization: 12.16 ± 3.20%
[7]
  % Internalization: 11.85 ± 2.83%
[8]
  HPLC Retention Time: 20.0 min
[9]; [18]
  tumor uptake: 1.33 ± 0.41 % ID/g
[9]; MCF7 xenografts, 4 h p.i.
  tumor uptake: 0.91 ± 0.22 % ID/g
[10]
  Kd: 169 ± 22.3 nM
[15]; SKBR3, ~300,000 cells, 0.1-30 nM radiopeptide, 60 min, room temperature, duplicate, non-specific with ~200-fold excess unlabeled peptide, mean ± SD
  Kd: 50 ± 14.2 nM
[15]; ratio of Kd values
  binding affinity higher for SKBR3 cells than MCF7 and T47D cell lines: more than 3 fold
[11]
  Kd: 158 ± 24.6 nM
[12]; 1 h p.i.
  tumor uptake: 0.66 ± 0.13 % ID/g
[12]; 4 h p.i.
  tumor uptake: 0.31 ± 0.10 % ID/g

## FCDGFYACYADVGGG [AHNP, anti-HER2/neu peptidomimetic designed from heavy-chain CDR3 loop of trastuzumab]
[16]
  Kd: 150 nM

## KCCYSL [literature values for chelator-derivatized, radiolabeled forms]
[17]
  tumor uptake: below 1 % ID/g
